Patent publication US8975232B2, “Macrocyclic kinase inhibitors and uses thereof” (President and Fellows of Harvard College, priority 2010, dated 2015)
Values joined by “and” are separate entries in the source; they are usually repeats but may differ in a detail not shown here. Identical values can stand only once.

Assays:
[1] = target: T1, full-length chicken c-Src (Gallus gallus, UniProt P00523); assay: Z'-LYTE kinase assay (Tyr 02 substrate peptide), full-length c-Src; type: biochemical
T1 construct: assayed against full-length chicken c-Src
Protocol: (§1) For the FRET-based endpoint assay, kinase assays were performed using Invitrogen's Z′-LYTE kinase assay using the Tyr 02 substrate peptide (based upon the optimal Abl substrate peptide […]) according to the manufacturer's instructions. Assays were performed at near KM ATP concentrations for full-length c-Src and full-length c-Src T338I-50 μM and 7 μM, respectively.
Derivatives of MC4 were synthesized by Fmoc solid-phase peptide synthesis and assayed against full-length chicken c-Src using Invitrogen's Z′-LYTE kinase assay. […] Holding the amino acids at the A and C positions constant, variants of MC4 containing phenylalanine, cyclohexylalanine, pentafluorophenylalanine, and N-methyl-phenylalanine at the B position in place of furylalanine were synthesized and assayed.

[2] = test system: Src Thr338Ile; assay: Inhibition of Src gatekeeper mutant; type: biochemical, chicken
From the text: (§2) Kinase domain constructs of human c-Abl (residues 229-512), chicken c-Src (residues 251-533 and residues 83-533), murine Lck (residues 227-509), and human Hck (residues 166-445) were expressed as previously described (Seeliger, Young et al. 2005; Seeliger, Nagar et al. 2007; the entire contents of each of which are incorporated by reference herein). Mutations were introduced into chicken c-Src (residues 251-533) (T338I, C277Q, L297M) by site-directed mutagenesis and verified by DNA sequencing.
as §1

[3] = test system: 3T3 cells (src−/−) stably transfected with c-Src Y529F; assay: Global phosphotyrosine Western blot (4G10) in c-Src Y529F-transfected cells; type: cell-based, murine
Protocol: Cells were cultured in 48-well tissue culture plates in DMEM+10% FBS until they reached confluence. After removing serum-containing medium, cells were washed with serum-free DMEM, and small molecule inhibitor in serum-free DMEM with 2% DMSO was added to each well and incubated overnight. After incubation with compound, cells were washed once with PBS and lysed in Cell Extraction Buffer (Invitrogen), a modified RIPA buffer, supplemented with PMSF and protease inhibitors according to the manufacturer's instruction. Cell lysates were quantified by BCA assay (Pierce Biotechnology) and an equivalent amount of lysate was loaded into each lane of a 4-12% polyacrylamide gel, and separated by SDS-PAGE. Separated proteins were transferred onto a PVDF membrane, and blocked for one hour with 5% BSA in TBST buffer. The membrane was then incubated overnight at 4° C. with 4G10 anti-phosphotyrosine antibody (Millipore) and a β-tubulin antibody (Sigma) as a loading control. Fluorescent anti-mouse and anti-rabbit secondary antibodies (LI-COR) were added prior to imaging the membrane.
Having obtained macrocycle Src kinase inhibitors with nanomolar in vitro potency, the potency for inhibition of Src kinase activity in living cells was assessed. Since intracellular Src kinase signaling is complex and tightly regulated, a cell culture line transfected with a constitutively active form of murine c-Src was chosen. 3T3 cells (src−/−) stably transfected with c-Src Y529F were compared to 3T3 cells (src−/−) transfected with empty vector. Anti-phosphotryosine Western blotting with the 4G10 antibody (Millipore) indicated a marked difference between global phosphotyrosine levels in the c-Src Y529F transfected cells compared to those transfected with empty vector; in fact, almost all detectable intracellular phosphotyrosine in the Src-transfected cell line was a result of c-Src Y529F and downstream signaling (FIG. 23, upper panel, compare lanes 2 and 3, transfected and trated with DMSO, against lanes 8 and 9, transfected with empty vector).
Briefly, cells were seeded in a 48-well plate and grown to confluence in Dulbecco's Modified Eagle Medium (DMEM) supplemented with 10% fetal bovine serum (FBS). Individual wells were then treated with 10 or 100 μM concentration of macrocycle in serum-free DMEM overnight. After removing the small molecule and washing with phosphate-buffered saline, cells were lysed in radioimmunoprecipitation assay (RIPA) buffer, and global phosphotyrosine levels were quantified by Western blot.

[4] = target: Akt3 (Homo sapiens, UniProt Q9Y243); assay: Z'-LYTE kinase assay (Invitrogen SelectScreen); type: biochemical; conditions: Akt3
From the text: (§3) Macrocycles A10-B1-C11-D5 and A10-B8-C11-D5 were enriched 2- to 6-fold upon selection for binding Akt3, MAPKAPK2, Pim1, and VEGFR2 (FIG. 6). These two macrocycles are structurally similar, sharing nitrophenylalanine (A10) and cyclohexylstatine (C11) building blocks as well as the same lysine scaffold (D5), and differ only at the B building block with either furylalanine (B1) or cyclohexylalanine (B8) (FIG. 6). For assay purposes, the macrocycles were synthesized with C-terminal PEG-diamine linkers to aid solubility, and then tested for the ability to inhibit Akt3, MAPKAPK2, Pim1 and VEGFR2.
(§4) Src IC50 determinations and single-point inhibition measurements were performed using Invitrogen's Z′-LYTE Tyr 02 assay kit according to the manufacturer's protocols. All kinase assays were performed at ATP concentrations near KM,ATP values, except where noted otherwise. Active human Src kinase was obtained from Millipore. For kinome profiling and IC50 determinations against non-Src kinases, compounds were submitted to Invitrogen's SelectScreen Kinase Profiling Service.

[5] = target: MAPKAPK2 (MK2) (Homo sapiens, UniProt P49137); assay: Z'-LYTE kinase assay (Invitrogen SelectScreen); type: biochemical; conditions: MK2 (MAPKAPK2)
From the text: as §3, §4

[6] = target: Pim1 (Homo sapiens, UniProt P11309); assay: Z'-LYTE kinase assay (Invitrogen SelectScreen); type: biochemical; conditions: Pim1
From the text: as §3, §4

[7] = target: p38α-MAPKAPK2 kinase cascade (P38α-MK2) (Homo sapiens, UniProt P49137+Q16539); assay: Z'-LYTE kinase cascade assay (Invitrogen SelectScreen); type: biochemical
From the text: as §3, §4

[8] = target: T2, Abl (Homo sapiens, UniProt P00519); assay: Continuous spectrophotometric kinase activity assay; type: biochemical
T2 construct: human c-Abl (residues 229-512); made in house
T2 sequence (P00519 229-512): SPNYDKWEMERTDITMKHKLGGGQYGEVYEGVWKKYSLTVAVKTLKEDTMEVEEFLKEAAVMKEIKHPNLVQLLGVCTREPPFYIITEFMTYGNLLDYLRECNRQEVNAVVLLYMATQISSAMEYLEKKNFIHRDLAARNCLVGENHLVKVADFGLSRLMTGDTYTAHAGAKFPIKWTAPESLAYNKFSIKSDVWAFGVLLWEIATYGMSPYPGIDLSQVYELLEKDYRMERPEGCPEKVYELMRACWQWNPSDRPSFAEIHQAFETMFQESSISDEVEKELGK
From the text: as §2
(§5) In vitro kinase inhibition assays were performed using either a continuous spectrophotometric assay or a FRET-based endpoint assay.
(§6) The original characterization of kinase inhibition was performed with a commercial kinase assay that relies on a fluorescently labeled peptide kinase substrate (Z-LYTE, Invitrogen). For further characterization, a continuous spectrophotometric kinase activity assay was employed that is easily adapted to different substrate peptides as well as a wider range of peptide and ATP concentrations.

[9] = target: T3, Src kinase domain (chicken c-Src residues 251-533) (Gallus gallus, UniProt P00523); assay: as above; type: biochemical; conditions: for IC50: Src kinase domain
T3 construct: chicken c-Src (residues 251-533 and residues 83-533); made in house
From the text: as §2, §5, §6

[10] = target: T4, Lck (Mus musculus, UniProt P06240); assay: as above; type: biochemical, murine
T4 construct: murine Lck (residues 227-509); made in house
From the text: as §2, §5, §6

[11] = target: HCK (Homo sapiens, UniProt P08631); assay: as above; type: biochemical; parameters: Kinase domain constructs of human c-Abl (residues 229-512), chicken c-Src (residues 251-533 and residues 83-533), murine Lck (residues 227-509), and human Hck (residues 166-445); made in house
From the text: as §2, §5, §6

[12] = 5 μM ATP, 100 μM Src optimal peptide
[13] = 5 μM ATP, 300 μM Src optimal peptide
[14] = 250 μM ATP, 300 μM Src optimal peptide
[15] = 5 μM ATP, 100 μM Src optimal peptide, listed as Macrocycle 1.2

Sequence of Pim1 (P11309 whole entry): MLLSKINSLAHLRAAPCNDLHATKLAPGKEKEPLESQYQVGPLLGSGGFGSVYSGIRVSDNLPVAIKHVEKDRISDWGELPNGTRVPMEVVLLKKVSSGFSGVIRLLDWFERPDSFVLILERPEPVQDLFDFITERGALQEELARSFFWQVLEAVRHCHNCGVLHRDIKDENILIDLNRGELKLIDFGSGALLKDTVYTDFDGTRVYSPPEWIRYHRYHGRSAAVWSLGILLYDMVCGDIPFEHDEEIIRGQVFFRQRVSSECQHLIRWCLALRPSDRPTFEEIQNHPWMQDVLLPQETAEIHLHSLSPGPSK
Sequence of HCK (P08631 262-515 limits assumed): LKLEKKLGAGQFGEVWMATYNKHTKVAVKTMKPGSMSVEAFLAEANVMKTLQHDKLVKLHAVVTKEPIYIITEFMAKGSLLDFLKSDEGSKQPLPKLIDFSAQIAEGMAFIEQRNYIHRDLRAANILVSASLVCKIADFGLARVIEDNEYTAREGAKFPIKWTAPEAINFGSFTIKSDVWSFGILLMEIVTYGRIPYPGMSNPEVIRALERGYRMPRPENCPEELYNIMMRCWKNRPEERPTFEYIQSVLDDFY
T4 sequence (P06240 227-509): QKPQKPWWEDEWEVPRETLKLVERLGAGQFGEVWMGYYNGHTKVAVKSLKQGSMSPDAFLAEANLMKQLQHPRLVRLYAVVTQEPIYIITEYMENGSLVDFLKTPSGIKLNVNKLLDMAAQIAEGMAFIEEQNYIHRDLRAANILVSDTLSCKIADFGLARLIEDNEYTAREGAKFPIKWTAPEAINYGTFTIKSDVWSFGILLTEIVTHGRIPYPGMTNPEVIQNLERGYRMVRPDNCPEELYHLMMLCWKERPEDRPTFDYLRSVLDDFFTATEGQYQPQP
Sequence of MAPKAPK2 (MK2) (P49137 whole entry): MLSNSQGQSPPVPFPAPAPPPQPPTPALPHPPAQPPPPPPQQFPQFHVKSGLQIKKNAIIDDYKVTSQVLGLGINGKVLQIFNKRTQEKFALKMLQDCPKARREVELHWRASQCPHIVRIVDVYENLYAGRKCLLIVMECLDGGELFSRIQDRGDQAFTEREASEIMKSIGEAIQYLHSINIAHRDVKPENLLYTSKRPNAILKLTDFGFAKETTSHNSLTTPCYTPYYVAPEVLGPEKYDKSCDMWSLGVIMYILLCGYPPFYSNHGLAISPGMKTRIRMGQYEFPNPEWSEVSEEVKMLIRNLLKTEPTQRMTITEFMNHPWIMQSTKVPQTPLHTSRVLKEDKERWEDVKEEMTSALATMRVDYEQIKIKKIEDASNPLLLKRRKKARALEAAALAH
Sequence of Akt3 (Q9Y243 whole entry): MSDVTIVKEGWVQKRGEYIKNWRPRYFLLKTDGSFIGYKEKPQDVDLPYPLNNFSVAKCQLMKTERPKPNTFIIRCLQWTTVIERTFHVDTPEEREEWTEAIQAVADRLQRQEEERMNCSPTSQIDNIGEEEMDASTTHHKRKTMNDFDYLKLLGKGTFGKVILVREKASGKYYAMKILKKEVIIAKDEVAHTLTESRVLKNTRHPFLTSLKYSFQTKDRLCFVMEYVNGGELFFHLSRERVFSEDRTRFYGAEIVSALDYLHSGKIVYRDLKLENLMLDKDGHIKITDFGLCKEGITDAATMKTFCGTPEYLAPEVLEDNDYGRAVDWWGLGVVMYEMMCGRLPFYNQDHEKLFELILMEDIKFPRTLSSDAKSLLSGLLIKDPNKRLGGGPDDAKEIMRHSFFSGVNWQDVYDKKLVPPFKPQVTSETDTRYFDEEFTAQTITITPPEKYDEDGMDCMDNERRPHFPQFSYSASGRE
Sequence of p38α-MAPKAPK2 kinase cascade (P38α-MK2) (Q16539 whole entry): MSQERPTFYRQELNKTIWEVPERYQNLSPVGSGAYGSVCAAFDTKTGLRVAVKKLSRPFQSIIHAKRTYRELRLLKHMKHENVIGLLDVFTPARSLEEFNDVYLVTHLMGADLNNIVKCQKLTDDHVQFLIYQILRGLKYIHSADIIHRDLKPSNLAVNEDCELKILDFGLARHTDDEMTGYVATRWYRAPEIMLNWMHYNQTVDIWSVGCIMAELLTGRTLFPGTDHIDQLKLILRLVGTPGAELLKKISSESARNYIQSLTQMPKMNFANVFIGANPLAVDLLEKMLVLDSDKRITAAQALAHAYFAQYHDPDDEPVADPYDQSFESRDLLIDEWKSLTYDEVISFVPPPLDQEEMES
Sequence of p38α-MAPKAPK2 kinase cascade (P38α-MK2) (P49137 whole entry): as the sequence (P49137 whole entry) above

**Q.** Which results are given for `NC(=O)[C@@H]1CCCNC(=O)[C@H](Cc2ccc([N+](=O)[O-])cc2)NC(=O)[C@H](Cc2ccc(F)cc2)NC(=O)[C@H](CC2CCCCC2)NC(=O)/C=C/C(=O)N1` [MC4.3]?
**A.** Src inhibition relative to parent compound (in words) [1]: retained all of the parent compound activity; inhibition of Src Thr338Ile gatekeeper mutant (in words) [2]: retained their inhibition potency; reduction of global phosphotyrosine levels (in words) ([3]; 10 or 100 μM macrocycle overnight): higher levels of tyrosine phosphorylation inhibition

**Q.** Which “reduction of global phosphotyrosine levels (in words)” value ([3]; 10 μM) does the source give for `CC(C)(C)n1nc(-c2ccc(Cl)cc2)c2c(N)ncnc21` [PP2, reference compound] here?
**A.** The value was “reduction of global phosphotyrosine to levels comparable with those observed in the cells transfected with empty vector”.

**Q.** Which IC50 [4] does the source give for `NCCOCCOCCNC(=O)[C@@H]1CCCCNC(=O)[C@H](Cc2ccc([N+](=O)[O-])cc2)NC(=O)[C@H](CC2CCCCC2)NC(=O)C[C@H](O)[C@H](CC2CCCCC2)NC(=O)/C=C\C(=O)N1` [cis-A10-B8-C11-D5] here?
**A.** Its IC50 is 8.7 µM and 8.4 µM.

**Q.** What about the IC50 [5] of the same compound?
**A.** Its IC50 is 6.1 µM.

**Q.** And the IC50 [6]?
**A.** The IC50 was 7.5 µM and 7.3 µM.

**Q.** What about the IC50 [7] of the same compound?
**A.** The IC50 was 3.4 µM.

**Q.** Which results are given for `NCCOCCOCCNC(=O)[C@@H]1CNC(=O)[C@@H](Cc2ccc(C(=O)c3ccccc3)cc2)NC(=O)[C@H](CC2CCCCC2)NC(=O)[C@H](C/C=C/c2ccccc2)NC(=O)/C=C\C(=O)N1` [cis-A12-B8-C10-D8]?
**A.** IC50 [5]: 47 µM; IC50 [6]: 17 µM; IC50 [7]: 14 µM

**Q.** With `O=C1/C=C\C(=O)N[C@@H](CC2CCCCC2)C(=O)N[C@@H](Cc2ccccc2)C(=O)N[C@@H](CCCNC(=O)c2cnccn2)C(=O)NCC[C@@H](C(=O)O)N1` [MC1.2] as the compound, how does the “increase in Src inhibition potency relative to parent macrocycle” value [1] read?
**A.** Its value is over 150 fold.

**Q.** And the IC50 ([1]; full-length chicken c-Src, ATP near KM (50 μM))?
**A.** Its IC50 is at most 0.004 µM.

**Q.** What about the IC50 [8, 12] of the same compound?
**A.** Its IC50 is over 100 µM.

**Q.** What about the IC50 [8, 13] of the same compound?
**A.** The IC50 was over 100 µM.

**Q.** What about the IC50 [8, 14] of the same compound?
**A.** Its IC50 is over 100 µM.

**Q.** What about the IC50 [9, 12] of the same compound?
**A.** The IC50 was 0.07 µM.

**Q.** And the IC50 [9, 15]?
**A.** Its IC50 is at most 0.07 µM.

**Q.** What about the IC50 [9, 13] of the same compound?
**A.** Its IC50 is 0.12 µM.

**Q.** And the IC50 [9, 14]?
**A.** Its IC50 is 0.14 µM.

**Q.** And the “increase in IC50 upon increasing substrate peptide 3-fold to 300 μM” value ([9]; Src optimal substrate peptide 100 to 300 μM)?
**A.** The value was 50%.

**Q.** What about the IC50 [10, 12] of the same compound?
**A.** Its IC50 is 4 µM.

**Q.** What about the IC50 [10, 15] of the same compound?
**A.** The IC50 was at most 0.87 µM.

**Q.** What about the IC50 [10, 13] of the same compound?
**A.** Its IC50 is 1.9 µM.

**Q.** What about the IC50 [10, 14] of the same compound?
**A.** The IC50 was 2.4 µM.

**Q.** And the “reduction of global tyrosine phosphorylation (in words)” value ([3]; 100 μM)?
**A.** The value was “did not reduce global tyrosine phosphorylation”.

**Q.** And the IC50 [11, 12]?
**A.** The IC50 was 0.36 µM.

**Q.** What about the IC50 [11, 15] of the same compound?
**A.** The IC50 was at most 0.36 µM.

**Q.** And the IC50 [11, 13]?
**A.** The IC50 was 0.46 µM.

**Q.** And the IC50 [11, 14]?
**A.** Its IC50 is 1 µM.
